One data set deals with hKv1.1 (Homo sapiens, UniProt Q09470). Description: cell-based. As to conditions: Kv1.1 (IWQ) IC50 (nM, Avg).
In data set [1] the test system is IL-2 secretion from T cells in human whole blood. The format is cell-based.
Data set [2] deals with IFN-g secretion from T cells in human whole blood. In kind it is cell-based.
Data set [3] addresses T1, hKv1.3 (Homo sapiens, UniProt P22001). Description: cell-based. As to conditions: for IC50: Kv1.3 (IWQ) IC50 (nM, Avg). The format is cell-based.
The target in data set [4] is T1, hKv1.3. Description: cell-based.
Data set [5] is classed as in vivo, rat. An excerpt:
Single subcutaneous doses were delivered to animals and serum was collected at various time points after injection. Studies in rats, dogs (beagles), and cynomolgus monkeys involved two to three animals per dose group, with blood and serum collection occurring at various time points over the course of the study. Male Sprague-Dawley (SD) rats (about 0.3 kg), male beagles (about 10 kg) and male cynomolgus monkeys (about 4 kg) were used in the studies described herein (n=3 animals per dose group). Approximately 5 male CD-1 mice were used per dose and time point in our mouse pharmacokinetic studies. Serum samples were stored frozen at −80° C., until analysis in an enzyme-linked immunosorbent assay (ELISA).
Single subcutaneous doses were delivered to animals and serum was collected at various time points after injection. Three animals were used per dose group, with blood and serum collection occurring at various time points over the course of the study. Serum samples were stored frozen at −80° C., until analysis in an enzyme-linked immunosorbent assay (ELISA). […] A brief description of these ELISA protocols is provided: […]

A further data set deals with hKv1.4 (Homo sapiens, UniProt P22459). In kind it is cell-based. As to conditions: PatchXpress; read-out: Kv1.4 IC50. Here is the method:
(§1) Kv1.1, Kv1.2, Kv1.3, Kv1.4, Kv1.6 and Kv1.7, PatchXpress®, planar patch-clamp electrophysiology. Ion channel currents were recorded at room temperature using PatchXpress® 7000A electrophysiology system from MDC using methods and cells described in Example 1 above.

Another data set has as its target hKv1.6 (Homo sapiens, UniProt P17658). The format is cell-based. As to conditions: PatchXpress; read-out: Kv1.6 IC50. Here is the method: as §1
The next data set concerns the target hKv1.2 (Homo sapiens, UniProt P16389). The format is cell-based. As to conditions: PatchXpress; read-out: Kv1.2 IC50. Here is the method: as §1
The target in the next data set is hKv1.7 (Homo sapiens, UniProt Q96RP8). In kind it is cell-based. As to conditions: PatchXpress; read-out: Kv1.7 IC50. Here is the method:
as §1

For another data set, the target named is human Kv1.3 (Homo sapiens, UniProt P22001). In kind it is cell-based. As to conditions: read-out: Kv1.3 IC50, whole cell patch clamp. (In general: The patch-clamp technique gives a direct electrical read-out from membranes.)
human Kv1.3, sequence (P22001 whole entry): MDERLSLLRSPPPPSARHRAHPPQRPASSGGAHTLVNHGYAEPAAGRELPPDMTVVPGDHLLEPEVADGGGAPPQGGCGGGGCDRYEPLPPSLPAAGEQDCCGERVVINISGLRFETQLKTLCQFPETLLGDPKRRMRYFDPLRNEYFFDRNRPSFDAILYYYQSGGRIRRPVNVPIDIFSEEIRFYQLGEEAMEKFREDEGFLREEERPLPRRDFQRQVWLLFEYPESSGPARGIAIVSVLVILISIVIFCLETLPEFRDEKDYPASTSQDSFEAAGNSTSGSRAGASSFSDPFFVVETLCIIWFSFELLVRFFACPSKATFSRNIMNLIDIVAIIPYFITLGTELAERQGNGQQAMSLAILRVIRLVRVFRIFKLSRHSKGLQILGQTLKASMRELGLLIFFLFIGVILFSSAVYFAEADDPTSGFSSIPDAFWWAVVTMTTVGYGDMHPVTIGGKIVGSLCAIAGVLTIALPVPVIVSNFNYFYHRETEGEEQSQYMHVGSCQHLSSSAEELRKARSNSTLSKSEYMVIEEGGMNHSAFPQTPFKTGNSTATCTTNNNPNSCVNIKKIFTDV
Data set [6] relates to rat T effector memory cell line, PAS. The format is cell-based. As to conditions: read-out: IC50 inhibition of myelin-specific proliferation of PAS T cells.
In another data set the target is hKv1.5 (Homo sapiens, UniProt P22460). As to conditions: read-out: Kv1.5 IC50; PatchXpress.
hKv1.5, sequence (P22460 whole entry): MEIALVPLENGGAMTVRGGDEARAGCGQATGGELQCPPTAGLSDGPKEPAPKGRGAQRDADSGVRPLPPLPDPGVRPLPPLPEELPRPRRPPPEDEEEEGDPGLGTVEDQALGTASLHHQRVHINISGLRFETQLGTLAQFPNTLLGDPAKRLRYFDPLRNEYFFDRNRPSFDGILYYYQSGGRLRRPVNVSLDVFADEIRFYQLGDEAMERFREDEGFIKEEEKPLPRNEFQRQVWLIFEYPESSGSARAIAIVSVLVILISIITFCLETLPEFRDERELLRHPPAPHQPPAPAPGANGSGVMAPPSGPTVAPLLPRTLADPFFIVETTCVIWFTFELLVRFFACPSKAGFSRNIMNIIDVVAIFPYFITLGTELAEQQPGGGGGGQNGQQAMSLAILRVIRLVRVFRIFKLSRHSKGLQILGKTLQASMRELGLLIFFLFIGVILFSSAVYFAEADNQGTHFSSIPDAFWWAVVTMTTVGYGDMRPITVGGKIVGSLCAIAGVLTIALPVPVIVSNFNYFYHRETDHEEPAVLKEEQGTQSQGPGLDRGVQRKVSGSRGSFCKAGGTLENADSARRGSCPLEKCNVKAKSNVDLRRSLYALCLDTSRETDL
Data set [7] is classed as in vivo, rat. As to conditions: male SD rats, single SC dose. Here is the method:
Hypoactivity and lateral recumbence were also observed at 0.4 mg/kg. […] The severity of swelling was not dose dependent, and all clinical observations noted in all groups that survived to their scheduled euthanasia resolved by approximately 24 hours postdose. […] Other changes noted at lower doses were limited to decreased lymphocytes and triglycerides at 0.4 mg/kg.
All clinical signs were resolved by day 11. […] Hematologic effects in animals given ≧0.5 mg/kg/day were consistent with increased red cell turnover, and correlated with increased spleen weights, and increased splenic hemopoiesis.
Exposures increased with increasing dose up to 2.5 mg/kg, but exposures were similar in rats given 2.5 and 5.0 mg/kg. […] There was a decrease in body weight and body weight gain noted in the 2.5 and 5.0 mg/kg/dose groups. […] Urine chemistry values were increased in a few animals/group at 0.5 or 2.0 mg/kg/day, but these changes were inconsistent among and within animals, and considered unlikely to be related to treatment. There were no test article-related effects on biomarkers of renal injury (beta-2 microglobulin, calbindin, clusterin, cystatin C, glutathione S-transferase alpha, kidney injury molecule-1, neutrophil gelatinase-associated lipocalin, osteopontin, tissue inhibitor of metalloproteinase-1, and vascular endothelial growth factor). […]

Setting [8] is: read-out: WB (IL-2) IC50 (nM, Avg).
[9] abbreviates: read-out: WB (IFNg) IC50 (nM, Avg).
Setting [10] is: Sprague-Dawley rats, single SC 6 mg/kg.

These results are taken from patent publication US20120121591A1 (priority 2009, published 2012).

Where two headings read alike, the source gives them in different places. Positions of bridges follow the written chain, without caps; N, C: chain ends. Non-standard residues stand in square brackets, D forms with d. Residues, ends and D or L forms follow the SMILES beside them. Nva = CCC[C@H](N)C(=O)O

T1 sequence (P22001 whole entry): as the sequence (P22001 whole entry) above
hKv1.6, sequence (P17658 whole entry): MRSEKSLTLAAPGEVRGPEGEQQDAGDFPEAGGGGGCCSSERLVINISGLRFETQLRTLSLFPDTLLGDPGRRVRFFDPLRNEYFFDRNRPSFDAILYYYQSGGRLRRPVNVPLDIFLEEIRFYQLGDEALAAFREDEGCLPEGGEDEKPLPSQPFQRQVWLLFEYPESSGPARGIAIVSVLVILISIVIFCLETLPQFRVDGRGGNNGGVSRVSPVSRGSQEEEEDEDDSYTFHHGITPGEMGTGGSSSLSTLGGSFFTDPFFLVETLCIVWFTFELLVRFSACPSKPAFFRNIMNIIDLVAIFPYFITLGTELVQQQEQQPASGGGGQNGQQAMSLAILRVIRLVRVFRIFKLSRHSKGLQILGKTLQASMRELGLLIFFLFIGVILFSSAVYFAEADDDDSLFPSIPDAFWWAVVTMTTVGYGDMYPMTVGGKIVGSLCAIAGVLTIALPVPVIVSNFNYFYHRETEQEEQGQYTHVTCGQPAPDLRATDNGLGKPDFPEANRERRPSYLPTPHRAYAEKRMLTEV
hKv1.1, sequence (Q09470 whole entry): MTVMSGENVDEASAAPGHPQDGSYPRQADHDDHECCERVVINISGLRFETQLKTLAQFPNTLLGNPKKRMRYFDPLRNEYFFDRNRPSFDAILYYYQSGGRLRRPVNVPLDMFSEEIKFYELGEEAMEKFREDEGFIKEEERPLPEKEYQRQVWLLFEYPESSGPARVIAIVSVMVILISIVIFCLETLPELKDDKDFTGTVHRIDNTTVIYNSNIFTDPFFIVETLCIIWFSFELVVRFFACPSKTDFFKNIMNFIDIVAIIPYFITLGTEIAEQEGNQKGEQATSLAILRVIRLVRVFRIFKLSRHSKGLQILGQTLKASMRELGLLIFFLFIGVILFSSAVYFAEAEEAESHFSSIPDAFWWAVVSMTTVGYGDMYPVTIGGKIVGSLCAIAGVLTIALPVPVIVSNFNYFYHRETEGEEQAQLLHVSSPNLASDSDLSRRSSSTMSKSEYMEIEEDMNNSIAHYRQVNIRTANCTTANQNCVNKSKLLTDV
hKv1.4, sequence (P22459 whole entry): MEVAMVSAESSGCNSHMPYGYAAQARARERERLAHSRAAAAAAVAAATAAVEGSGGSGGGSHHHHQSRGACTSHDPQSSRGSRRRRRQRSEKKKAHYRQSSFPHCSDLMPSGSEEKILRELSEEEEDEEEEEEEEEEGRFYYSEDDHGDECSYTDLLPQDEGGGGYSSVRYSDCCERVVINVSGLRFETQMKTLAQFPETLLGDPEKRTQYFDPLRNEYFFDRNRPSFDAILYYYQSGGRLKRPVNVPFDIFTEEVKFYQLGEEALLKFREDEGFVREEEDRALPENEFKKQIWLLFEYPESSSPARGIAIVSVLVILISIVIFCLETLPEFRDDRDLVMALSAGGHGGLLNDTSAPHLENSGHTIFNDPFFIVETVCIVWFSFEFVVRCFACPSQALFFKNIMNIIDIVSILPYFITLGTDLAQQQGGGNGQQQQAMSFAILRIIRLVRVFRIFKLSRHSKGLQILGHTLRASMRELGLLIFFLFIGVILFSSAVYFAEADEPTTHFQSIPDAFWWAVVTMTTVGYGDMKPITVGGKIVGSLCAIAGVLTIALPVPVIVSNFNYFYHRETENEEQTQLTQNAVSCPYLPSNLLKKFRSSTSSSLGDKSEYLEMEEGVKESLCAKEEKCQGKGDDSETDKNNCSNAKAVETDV
hKv1.2, sequence (P16389 whole entry): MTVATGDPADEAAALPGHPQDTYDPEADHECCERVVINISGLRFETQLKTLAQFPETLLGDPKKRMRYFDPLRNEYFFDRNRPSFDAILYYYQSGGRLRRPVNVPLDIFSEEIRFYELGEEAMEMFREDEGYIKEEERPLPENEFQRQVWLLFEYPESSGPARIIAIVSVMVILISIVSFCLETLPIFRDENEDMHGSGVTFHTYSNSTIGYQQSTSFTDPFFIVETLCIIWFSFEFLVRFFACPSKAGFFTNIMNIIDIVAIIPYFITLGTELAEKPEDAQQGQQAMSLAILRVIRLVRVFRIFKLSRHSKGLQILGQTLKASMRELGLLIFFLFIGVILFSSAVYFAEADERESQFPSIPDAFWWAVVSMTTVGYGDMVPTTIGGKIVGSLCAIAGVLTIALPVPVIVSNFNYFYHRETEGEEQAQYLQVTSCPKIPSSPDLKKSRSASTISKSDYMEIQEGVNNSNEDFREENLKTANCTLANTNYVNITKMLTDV
hKv1.7, sequence (Q96RP8 whole entry): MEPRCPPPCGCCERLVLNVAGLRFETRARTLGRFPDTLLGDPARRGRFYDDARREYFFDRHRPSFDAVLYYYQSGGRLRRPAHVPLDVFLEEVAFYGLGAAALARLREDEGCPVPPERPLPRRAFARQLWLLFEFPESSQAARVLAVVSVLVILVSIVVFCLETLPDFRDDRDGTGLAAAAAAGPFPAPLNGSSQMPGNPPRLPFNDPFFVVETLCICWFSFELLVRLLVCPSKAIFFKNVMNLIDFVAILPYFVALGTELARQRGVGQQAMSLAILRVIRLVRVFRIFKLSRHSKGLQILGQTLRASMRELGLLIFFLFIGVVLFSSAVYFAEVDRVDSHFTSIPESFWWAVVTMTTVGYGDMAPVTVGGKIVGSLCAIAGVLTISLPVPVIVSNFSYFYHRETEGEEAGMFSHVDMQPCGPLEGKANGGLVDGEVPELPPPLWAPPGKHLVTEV

As to `CCC[C@@H]1NC(=O)[C@H](CO)NC(=O)[C@H]([C@@H](C)O)NC(=O)[C@H](CCCNC(=N)N)NC(=O)[C@@H]2CSSC[C@@H]3NC(=O)[C@H]([C@@H](C)O)NC(=O)[C@H](CCCCN)NC(=O)[C@H](CCCNC(=N)N)NC(=O)[C@H](CSSC[C@H](NC(=O)[C@H](CCC(=O)O)NC(=O)[C@H](CO)NC(=O)[C@H](C(C)C)NC(=O)[C@@H]4CCCN4C(=O)[C@H]([C@@H](C)CC)NC(=O)[C@H](CC(C)C)NC(=O)[C@H](CC(=O)O)NC(=O)[C@H](CCCCN)NC(=O)[C@@H](NC(=O)[C@@H](NC(=O)[C@@H](N)CCCNC(=N)N)[C@@H](C)O)CSSC[C@@H](C(N)=O)NC(=O)[C@H](CO)NC(=O)CNC3=O)C(=O)N[C@@H]([C@@H](C)O)C(=O)N[C@@H](CC(=O)O)C(=O)N[C@@H]([C@@H](C)CC)C(=O)N[C@@H](CCCCN)C(=O)N2)NC(=O)[C@H](CC(C)C)NC(=O)[C@H](CC(N)=O)NC(=O)[C@H](CC(C)C)NC(=O)[C@H](CCCNC(=N)N)NC(=O)[C@H](Cc2ccc(O)cc2)NC(=O)[C@H](CCCCN)NC1=O` [[Lys16, Nva21]HmK-amide] (H-RTCKDLIPVSECTDIKCRTS[Nva]KYRLNLCRKTCGSC-NH2; disulfide 3-35, 12-28, 17-32), the IC50 was 0.58 nM against hKv1.1, 6.39 nM in data set [1] (setting [8]), 9.83 nM in data set [2] (setting [9]) and 23 nM at hKv1.3 [3]. In addition, the “WB (IL-2) Potency Relative to ShK” value in data set [1] turned out to be 148.53. In data set [2], the “WB (IFNg) Potency Relative to ShK” value was 188.96. Moreover, the “Kv1.1/Kv1.3 Selectivity Ratio” value at hKv1.3 [3] is listed as 0.025.
As to `CC[C@H](C)[C@@H]1NC(=O)[C@@H](NC(=O)[C@H](CO)NC(=O)[C@@H](N)CCCNC(=N)N)CSSC[C@@H](C(=O)N[C@@H](C)C(=O)O)NC(=O)[C@H]([C@@H](C)O)NC(=O)CNC(=O)[C@@H]2CSSC[C@@H]3NC(=O)[C@H](CCCCN)NC(=O)[C@H](Cc4ccccc4)NC(=O)[C@H](C)NC(=O)[C@H]([C@@H](C)O)NC(=O)[C@H](CSSC[C@H](NC(=O)[C@H](Cc4ccccc4)NC(=O)[C@H](CO)NC(=O)[C@H](CC(C)C)NC(=O)[C@H](CCCNC(=N)N)NC(=O)[C@H](Cc4ccc(O)cc4)NC(=O)[C@H](CCCCN)NC(=O)[C@H](CCSC)NC(=O)[C@H](CO)NC(=O)[C@H](Cc4c[nH]cn4)NC(=O)[C@H](CCCCN)NC3=O)C(=O)N[C@@H](CCCNC(=N)N)C(=O)N[C@@H](CCCCN)C(=O)N[C@@H]([C@@H](C)O)C(=O)N2)NC(=O)[C@H](CCCNC(=N)N)NC(=O)[C@H](CO)NC(=O)[C@H](CCCCN)NC(=O)[C@@H]2CCCN2C(=O)[C@H]([C@@H](C)CC)NC(=O)[C@H]([C@@H](C)O)NC(=O)[C@H](CC(=O)O)NC1=O` [[Lys16]ShK-Ala], the IC50 in [1] (read-out: IC50 blocking IL-2 secretion from human whole blood) was found to be 0.138 nM; in data set [1] (read-out: WB (IL-2) IC50) it was 0.138 nM; in [1] (setting [8]) it was 0.138 nM; in [2] (read-out: WB (IFNg) IC50) it was 0.266 nM; in data set [2] (setting [9]), 0.266 nM; against hKv1.3 [3], 9.5 nM. The IC50 against hKv1.3 [4] was found to be 0.06 nM.
On to “Monovalent aKLH HC-ShK(1-35 Q16K) Ab: anti-KLH IgG2 antibody with [Lys16]ShK fused to the C-terminus of one heavy chain”, for which the “Exposure (AUC0-inf) normalized for MW, times greater than ShK-L5” value in [5] (150 kDa//4 kDa) is on record as “about 163 times”. This molecule also had an AUC0-t in data set [5] (setting [10]) of 481 ± 157 µg·h/mL. Further, the Cmax – broadly, the maximum level reached in the sampled fluid or tissue – in [5] (setting [10]) stood at 5890 ± 1770 ng/mL. This molecule also showed an HL in data set [5] (setting [10]) of 32 ± 13.9 h. Moreover, in data set [5] (setting [10]), the Tmax (in general, the time at which the peak concentration occurs) is given as 32 ± 13.9 h. Also, the IC50 was above 10000 nM with hKv1.4; above 616 nM with hKv1.6; 7970 nM with hKv1.2; above 10000 nM in the data set with hKv1.7; 0.354 nM in the data set with human Kv1.3; 0.292 nM in [1] (read-out: WB (IL-2) IC50). Besides, the results for the IC50 (in data set [2] (read-out: WB (IFNg) IC50); in data set [6]; in the data set with hKv1.5) were 0.657 nM, 0.839 nM and above 10000 nM, respectively.
Turning to “PEG-[1-Nal 16]ShK: PEG conjugate of the 1-Nal16 analog of ShK, relatively Kv1.3-inactive (RSCIDTIPKSRCTAFXCKHSMKYRLSFCRKTCGTC; PEG; ShK PEGylated toxin peptide analog; PEGylated; 3-(1-naphthyl)alanine)”, the “Molar AUC exposure compared with PEG-[Lys16]ShK and anti-KLH Ab-[Lys16]ShK” value in data set [7] is on record as 6-8 ×. Moreover, in the data set with hKv1.3 [3], the “Times less activity of the PEG conjugate than of the free peptide (Kv1.3)” value was “about 57 times”.
